The experiment concerns oligodendrocyte NMDA receptor (NR1-containing; probably NR1, NR2C and NR3). The experiment can be described thus: whole-cell patch clamp of NMDA-evoked current, […] min memantine pre-exposure. Type of experiment: cell-based, Rattus norvegicus.

For the molecule `CC12CC3CC(C)(C1)CC(N)(C3)C2` [memantine], 54 µM corresponded to half-maximal inhibition (IC50). This counts as double-digit micromolar.

The record behind these values is PMC2863073 (Glia, 2008).
